Experimental data reported in the supplement of paper PMC11061612.

Assays:
[1] = test system: A375 (Melanoma); assay: Bliss excess, mean over the matrix (fraction); higher = more synergy
Method in brief: (§1)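 Cell lines in DMEM/F12 or RPMI with 10% FBS were plated in 1536-well plates, held 24 hours at 37°C, 5% CO2, then given two-drug dose matrices for 72 hours (DMSO typically 0.2%). Viability was read by CellTiter-Glo 2.0 luminescence and scaled as inhibition from 0 (vehicle wells) to 1 (blank wells). Combination Emax is the second-highest inhibition in the matrix; Bliss excess is observed combination effect minus expected EA + EB − EA·EB, EA and EB being single-agent effects.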

[2] = test system: ATN-1 (T-Lymphoblastic Leukemia); assay: as above
Method in brief: as §1

[3] = test system: BC-1 (B-Cell Non-Hodgkin's Lymphoma); assay: as above
Method in brief: as §1

[4] = test system: C32 (Melanoma); assay: as above
Method in brief: as §1

[5] = test system: HT-3 (Cervical Carcinoma); assay: as above
Method in brief: as §1

[6] = test system: IGROV-1 (Ovarian Carcinoma); assay: as above
Method in brief: as §1

[7] = test system: KNS-62 (Squamous Cell Lung Carcinoma); assay: as above
Method in brief: as §1

[8] = test system: NCI-H1435 (Non-Small Cell Lung Carcinoma); assay: as above
Method in brief: as §1

[9] = test system: NCI-H2023 (Non-Small Cell Lung Carcinoma); assay: as above
Method in brief: as §1

[10] = test system: OCI-M1 (Acute Myeloid Leukemia); assay: as above
Method in brief: as §1

[11] = test system: SBC-5 (Small Cell Lung Carcinoma); assay: as above
Method in brief: as §1

[12] = test system: SK-N-DZ (Neuroblastoma); assay: as above
Method in brief: as §1

[13] = test system: A375 (Melanoma); assay: combination Emax (second highest fraction inhibited in the dose matrix, 72 h); higher = more inhibition; extreme values may be limits of the assay
Method in brief: as §1

[14] = test system: C32 (Melanoma); assay: as above
Method in brief: as §1

[15] = test system: HT-144 (Melanoma); assay: as above
Method in brief: as §1

[16] = test system: MG-63 (Osteosarcoma); assay: as above
Method in brief: as §1

[17] = test system: NCI-H2009 (Lung Adenocarcinoma); assay: as above
Method in brief: as §1

[18] = test system: RPMI-8402 (T-Lymphoblastic Leukemia); assay: as above
Method in brief: as §1

[19] = test system: SNU-1 (Gastric Carcinoma); assay: as above
Method in brief: as §1

[20] = test system: SUP-HD1 (Hodgkin's Lymphoma); assay: as above
Method in brief: as §1
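Throughout, for Bliss excess, mean over the matrix: after 72 h of two-drug dosing.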

| Compound | Bliss excess [1] | Bliss excess [2] | Bliss excess [3] | Bliss excess [4] | Bliss excess [5] | Bliss excess [6] | Bliss excess [7] | Bliss excess [8] | Bliss excess [9] | Bliss excess [10] | Bliss excess [11] | Bliss excess [12] | combination Emax [13] | combination Emax [14] | combination Emax [15] | combination Emax [16] | combination Emax [17] | combination Emax [18] | combination Emax [19] | combination Emax [20] |
| --- | --- | --- | --- | --- | --- | --- | --- | --- | --- | --- | --- | --- | --- | --- | --- | --- | --- | --- | --- | --- |
| COc1nnc2ccc(N3CCC(c4ccc(OCCN5CCN(C)C(=O)[C@H]5C)cc4)CC3)nn12 [AZD5153] + CC1(C)CCC(CN2CCN(c3ccc(C(=O)NS(=O)(=O)c4ccc(NCC5CCOCC5)c([N+](=O)[O-])c4)c(Oc4cnc5[nH]ccc5c4)c3)CC2)=C(c2ccc(Cl)cc2)C1 [Venetoclax] (first compound max 1 µM, 7x7, partner max 1 µM) | -0.057 | -0.0279 | -0.0604 | -0.0383 | -0.0644 | -0.0416 | -0.0381 | -0.0143 | -0.0832 | -0.062 | -0.0579 | 0.0059 | 0.44 | 0.261 | 0.417 | 0.646 | 0.373 | 0.791 | 0.645 | 0.955 |
| CC1(C)CCC(CN2CCN(c3ccc(C(=O)NS(=O)(=O)c4ccc(NCC5CCOCC5)c([N+](=O)[O-])c4)c(Oc4cnc5[nH]ccc5c4)c3)CC2)=C(c2ccc(Cl)cc2)C1 [Venetoclax] + CN(C)CCCOc1ccc(-c2ccc3ncc4c(c3c2)n(C2CCOCC2)c(=O)n4C)cn1 [AZD0156] (first compound max 1 µM, 7x7, partner max 1 µM) | -0.003 | 0.0437 | 0.0066 | -0.015 | -0.0423 | -0.0236 | -0.0183 | -0.0029 | -0.058 | -0.0299 | 0.011 | 0.013 | 0.216 | 0.413 | 0.217 | 0.217 | 0.273 | 0.188 | 0.225 | 0.761 |
| CC1(C)CCC(CN2CCN(c3ccc(C(=O)NS(=O)(=O)c4ccc(NCC5CCOCC5)c([N+](=O)[O-])c4)c(Oc4cnc5[nH]ccc5c4)c3)CC2)=C(c2ccc(Cl)cc2)C1 [Venetoclax] + C1CN(CCC1(C(=O)N[C@@H](CCO)C2=CC=C(C=C2)Cl)N)C3=NC=NC4=C3C=CN4 [Capivasertib] (first compound max 1 µM, 7x7, partner max 3 µM) | -0.0463 | 0.0132 | -0.011 | -0.0483 | -0.0231 | -0.0182 | -0.0474 | 0.0014 | -0.0449 | -0.0441 | -0.041 | -0.0211 | 0.175 | 0.356 | 0.383 | 0.317 | 0.128 | 0.498 | 0.256 | 0.877 |
| CC(=O)c1c(C)c2cnc(Nc3ccc(N4CCNCC4)cn3)nc2n(C2CCCC2)c1=O [Palbociclib] + Cc1c2c(nn1C)CSCc1cc(n(C)n1)CSc1cc(c3ccccc3c1)OCCCc1c(C(=O)O)n(C)c3c-2c(Cl)ccc13 [AZD5991] (first compound max 10 µM, 7x7, partner max 1 µM) | -0.0057 | -0.0498 | -0.0028 | -0.0069 | -0.0751 | 0.0122 | -0.0142 | -0.0308 | -0.0335 | 0.033 | -0.0171 | 0.0655 | 0.356 | 0.254 | 0.972 | 0.406 | 0.179 | 0.974 | 0.805 | 0.62 |
| NC1(C(=O)N[C@@H](CCO)c2ccc(Cl)cc2)CCN(c2ncnc3[nH]ccc23)CC1 [Capivasertib] + CCN(CCO)CCCOc1ccc2c(Nc3cc(CC(=O)Nc4cccc(F)c4)[nH]n3)ncnc2c1 [AZD2811] (first compound max 10 µM, 7x7, partner max 1 µM) | -0.0008 | -0.0813 | -0.0383 | 0.0477 | -0.0327 | -0.0632 | -0.0086 | -0.0384 | -0.0087 | 0.066 | 0.0526 | 0.0051 | 0.421 | 0.54 | 0.764 | 0.855 | 0.386 | 0.939 | 0.404 | 0.657 |
| CC1(C)CCC(CN2CCN(c3ccc(C(=O)NS(=O)(=O)c4ccc(NCC5CCOCC5)c([N+](=O)[O-])c4)c(Oc4cnc5[nH]ccc5c4)c3)CC2)=C(c2ccc(Cl)cc2)C1 [Venetoclax] + Cc1cc2ncnn2cc1Nc1ncc2c(n1)n(C1CCOCC1)c(=O)n2C [AZD7648] (first compound max 1 µM, 7x7, partner max 10 µM) | -0.0301 | 0.0196 | 0.017 | -0.0219 | -0.016 | -0.0589 | -0.0255 | -0.0088 | -0.0513 | -0.0153 | 0.0086 | -0.0112 | 0.233 | 0.396 | 0.222 | 0.201 | 0.12 | 0.287 | 0.288 | 0.795 |
